From the supplement of paper PMC4858399
Structures can show the parent of a compound that is named as a salt.

How the values were obtained:
Conditions in all cases: exposure time 48 h
[1] = tested on: Caenorhabditis elegans N2; test: AC50 for larval growth inhibition (Hill fit); higher = less potent
In short: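 Synchronised C. elegans N2 L1 larvae, 50 per well in 96-well plates, were grown at 20°C for 48 h in K-medium with killed OP50, 1% DMSO and 0.5–200 µM chemical. Worm size was read on a COPAS Biosort as extinction, log-transformed and averaged per well, and only wells holding at least 10 worms were kept. AC50 was obtained by a constrained Hill fit using weighted genetic-algorithm regression, with out-of-range values censored.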

[2] = tested on: Caenorhabditis elegans N2; test: lowest effective concentration for larval growth inhibition (size below effect threshold); higher = less potent
In short: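 Each well of a 96-well plate received 50 C. elegans N2 L1 larvae, which grew for 48 h at 20°C in K-medium containing killed bacteria, 1% DMSO and the chemical at 0.5, 1, 5, 10, 50, 100 or 200 µM. A Biosort recorded the extinction of every worm as its size, and these readings were log-transformed and averaged per well. The lowest effective concentration is defined as the first dose at which the plate-adjusted mean size falls below the threshold and stays below it at all higher doses; that threshold is 5.665.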

[3] = tested on: Caenorhabditis elegans N2; test: mean nematode size ln(EXT) after 48 h, plate-adjusted (DMSO control set to 6) (ln(EXT), control-adjusted); higher = larger nematodes / less growth inhibition
In short: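 A growth model removed debris from Biosort extinction readings taken on each worm. These worms were synchronised C. elegans N2 L1 larvae, 50 per well in 4–6 wells per treatment, grown for 48 h at 20°C in K-medium with killed OP50, 1% DMSO and 0.5–200 µM chemical. Readings were natural-logged and averaged by well to give mean size. On each plate, the vehicle control mean was subtracted and 6 was added.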

Compound	AC50 for larval growth inhibition [1] [µM]	lowest effective concentration [2] [µM]	mean nematode size ln(EXT) (ln) ([3]; 0.5 µM)	mean nematode size ln(EXT) (ln) ([3]; 1 µM)	mean nematode size ln(EXT) (ln) ([3]; 5 µM)	mean nematode size ln(EXT) (ln) ([3]; 10 µM)	mean nematode size ln(EXT) (ln) ([3]; 50 µM)	mean nematode size ln(EXT) (ln) ([3]; 100 µM)	mean nematode size ln(EXT) (ln) ([3]; 200 µM)
CCCCOC(=O)c1ccccc1 [Butyl benzoate]	100	200	6	5.94	5.85	5.83	6	5.76	5.53
CCSC(=O)N(CC(C)C)CC(C)C [Butylate]	196	200	5.97	5.89	6.11	5.97	6.05	6.06	5.65
CCCCOC(=O)c1ccc(O)cc1 [Butylparaben]	103	200	5.84	5.8	5.75	5.78	5.96	5.68	5.19
CCCCCCCCCCCCCCCS(=O)(=O)Oc1ccccc1 [C10-21 sulfonic acids phenyl esters]	169	200	6.06	6.02	5.89	6	5.93	5.96	3.65
COCCOC[C@H](CC1(C(=O)N[C@H]2CC[C@@H](C(=O)O)CC2)CCCC1)C(=O)Oc1ccc2c(c1)CCC2 [Candoxatril]	> 200	200	5.96	5.83	5.92	5.81	5.91	5.85	5.66
O=C1C2CC=CCC2C(=O)N1SC(Cl)(Cl)Cl (stereo not drawn) [Captan]	85.6	50	5.8	5.75	5.73	5.84	5.45	4.27	3.67
CC(=O)c1ccc2c(c1)[C@H](NC(=O)c1ccc(F)cc1)[C@@H](O)C(C)(C)O2 [Carabersat]	127	200	5.79	5.88	5.9	5.89	5.99	5.93	5.65
CNC(=O)Oc1cccc2c1OC(C)(C)C2 [Carbofuran]	198	100	5.92	5.92	5.84	5.89	5.75	5.39	4.54
CCCCN(CCCC)SN(C)C(=O)Oc1cccc2c1OC(C)(C)C2 [Carbosulfan]	60.2	1	5.76	5.51	5.04	4.86	5.15	4.44	4
CCOC(=O)C(Cl)Cc1cc(-n2nc(C)n(C(F)F)c2=O)c(F)cc1Cl (stereo not drawn) [Carfentrazone-ethyl]	> 200	200	6.04	5.98	6.04	6.04	5.93	5.98	5.59
Cc1c(C(=O)O)c(O)cc2c1C(=O)c1c(O)c([C@@H]3O[C@H](CO)[C@@H](O)[C@H](O)[C@H]3O)c(O)c(O)c1C2=O [Carminic acid]	115	100	5.97	5.92	5.91	5.96	5.97	5.46	–
Cc1ccc(-c2cc(C(F)(F)F)nn2-c2ccc(S(N)(=O)=O)cc2)cc1 [Celecoxib]	30.3	50	5.9	5.92	5.8	5.81	4.7	4.53	4.22
Nc1cc(Cl)cc(C(=O)O)c1Cl [Chloramben]	> 200	50	5.87	5.9	5.88	5.9	5.46	5.58	5.3
ClC1=C(Cl)C2(Cl)C3C(Cl)C(Cl)CC3C1(Cl)C2(Cl)Cl (stereo not drawn) [Chlordane]	8.58	5	5.98	5.93	5.24	4.63	3.8	3.81	3.48
O=C(O)C1C(C(=O)O)C2(Cl)C(Cl)=C(Cl)C1(Cl)C2(Cl)Cl (stereo not drawn) [Chlorendic acid]	> 200	100	5.71	5.85	5.82	5.84	5.76	5.65	5.45
CCOP(=S)(OCC)OC(Cl)C(Cl)(Cl)Cl (stereo not drawn) [Chlorethoxyfos]	13.2	50	5.75	5.76	5.76	5.7	4.54	5.09	3.42
CCOC(=O)C(O)(c1ccc(Cl)cc1)c1ccc(Cl)cc1 [Chlorobenzilate]	39.4	10	6.05	5.97	5.87	5.64	4.21	4.08	3.11
COc1cc(Cl)c(OC)cc1Cl [Chloroneb]	> 200	200	5.75	5.71	5.58	5.7	5.96	5.97	5.47
N#Cc1c(Cl)c(Cl)c(Cl)c(C#N)c1Cl [Chlorothalonil]	193	200	5.66	5.94	5.95	5.95	5.88	5.85	4.4
CN(C)CCCN1c2ccccc2Sc2ccc(Cl)cc21 [Chlorpromazine hydrochloride]	46.3	50	5.89	5.87	5.82	5.71	4.47	3.85	3.07
CC(C)OC(=O)Nc1cccc(Cl)c1 [Chlorpropham]	60.7	100	5.75	5.77	5.9	5.95	5.82	4.79	4.32
CCOP(=O)(OCC)Oc1nc(Cl)c(Cl)cc1Cl [Chlorpyrifos oxon]	1.24	≤ 0.5	4.98	4.42	4.26	4.05	3.47	3.24	3.15
COP(=S)(OC)Oc1nc(Cl)c(Cl)cc1Cl [Chlorpyrifos-methyl]	96.8	100	6.24	6.29	6.3	6.17	5.93	4.68	3.59

Compound	AC50 for larval growth inhibition [1] [µM]	lowest effective concentration [2] [µM]	mean nematode size ln(EXT) (ln) ([3]; 0.5 µM)	mean nematode size ln(EXT) (ln) ([3]; 1 µM)	mean nematode size ln(EXT) (ln) ([3]; 5 µM)	mean nematode size ln(EXT) (ln) ([3]; 10 µM)	mean nematode size ln(EXT) (ln) ([3]; 50 µM)	mean nematode size ln(EXT) (ln) ([3]; 100 µM)	mean nematode size ln(EXT) (ln) ([3]; 200 µM)
CCOP(=S)(OCC)Oc1nc(Cl)c(Cl)cc1Cl [Chlorpyrifos]	2.28	≤ 0.5	5.55	5.06	4.29	3.42	3.29	3.43	3.06
COC(=O)c1c(Cl)c(Cl)c(C(=O)OC)c(Cl)c1Cl [Chlorthal-dimethyl]	> 200	100	5.89	5.95	5.78	5.83	5.75	5.56	5.42
Cc1ccccc1CO[C@@H]1C[C@@]2(C(C)C)CCC1(C)O2 [Cinmethylin]	> 200	200	5.94	5.99	6	6.07	5.92	5.77	4.9
CC(C)=CCCC(C)CCO (stereo not drawn) [Citronellol]	> 200	200	5.82	5.87	5.92	5.78	5.86	5.73	5.6
C#CCOC(=O)[C@@H](C)Oc1ccc(Oc2ncc(Cl)cc2F)cc1 [Clodinafop-propargyl]	106	200	5.98	5.9	6.05	5.94	6.15	5.84	5.14
CCOC(=O)C(C)(C)Oc1ccc(Cl)cc1 [Clofibrate]	> 200	200	6.01	5.8	5.86	5.81	5.75	5.78	5.54
Oc1ccc(Cl)cc1Cc1ccccc1 [Clorophene]	92	50	5.89	5.87	5.83	5.73	5.15	4.62	3.79
Clc1ccccc1C(c1ccccc1)(c1ccccc1)n1ccnc1 [Clotrimazole]	18.8	5	5.8	5.74	5.4	4.95	3.89	3.9	3.23
CCOP(=S)(OCC)Oc1ccc2c(C)c(Cl)c(=O)oc2c1 [Coumaphos]	3.33	≤ 0.5	5.36	5.23	4.39	4.44	3.95	3.82	3.58
CC(C)(OO)c1ccccc1 [Cumene hydroperoxide]	> 200	200	5.92	5.91	5.94	5.75	5.88	5.75	5.62
Cc1ccc(-c2c(Cl)nc(C#N)n2S(=O)(=O)N(C)C)cc1 [Cyazofamid]	60.5	100	5.91	5.91	5.88	6.02	5.84	5.29	4.91
CCSC(=O)N(CC)C1CCCCC1 [Cycloate]	105	200	6.06	6.1	5.93	6.05	6.03	5.76	5.06
CC1=C2C[C@H]3[C@@H](CC=C4C[C@@H](O)CC[C@@]43C)[C@@H]2CC[C@]12O[C@@H]1C[C@H](C)CN[C@H]1[C@H]2C [Cyclopamine]	> 200	200	5.89	5.89	5.9	5.85	5.9	5.8	5.39
CCCCOC(=O)[C@H](C)Oc1ccc(Oc2ccc(C#N)cc2F)cc1 [Cyhalofop-butyl]	107	200	6	6	6.12	6.17	6.08	5.91	5.22
CCNC(=O)NC(=O)/C(C#N)=N/OC [Cymoxanil]	> 200	100	6.18	6.05	6.07	6.11	5.79	5.58	4.81
CC1(C)C(C=C(Cl)Cl)C1C(=O)OC(C#N)c1cccc(Oc2ccccc2)c1 (stereo not drawn) [Cypermethrin]	> 200	200	6.09	6.11	6.12	6.03	5.88	5.71	5.17
CC(C1CC1)C(O)(Cn1cncn1)c1ccc(Cl)cc1 (stereo not drawn) [Cyproconazole]	> 200	200	5.92	5.92	5.85	5.99	6.17	6.33	5.59
Cc1cc(C2CC2)nc(Nc2ccccc2)n1 [Cyprodinil]	132	50	5.93	5.88	5.96	5.86	5.32	5.01	4
Nc1ccn([C@@H]2O[C@H](CO)[C@@H](O)[C@@H]2O)c(=O)n1 [Cytarabine HCl]	> 200	200	5.96	5.87	5.95	6	5.89	6.03	5.47
OC[C@@H](O)[C@@H](O)[C@H](O)[C@H](O)CO [D-Mannitol]	> 200	200	5.94	5.89	5.93	5.96	5.93	5.94	5.42
CN(C)NC(=O)CCC(=O)O [Daminozide]	> 200	200	6.43	6.07	6.34	6.17	6	6.01	5.44
CC(C)(C)c1cc(/C=C2\SC(=N)NC2=O)cc(C(C)(C)C)c1O [Darbufelone mesylate]	31.2	≤ 0.5	5.59	5.62	5.03	5.48	4.17	4.18	3.87
CCCCCCCCCC(=O)O [Decanoic acid]	> 200	200	5.89	5.86	5.85	5.87	5.85	5.68	5.66
